Consider 17 molecules from patent publication US20060148858A1, “1, 2-Azole derivatives with hypoglycemic and hypolipidemic activity” (priority 2002, published 2006).

Read-outs that look alike come from different tables or passages of the source.

One data set addresses T1, PPARδ-RXRα heterodimer (Homo sapiens, UniProt Q03181).
T1 construct: expressed in transfected cells; host or cells: COS-1
T1 sequence (Q03181 1-441): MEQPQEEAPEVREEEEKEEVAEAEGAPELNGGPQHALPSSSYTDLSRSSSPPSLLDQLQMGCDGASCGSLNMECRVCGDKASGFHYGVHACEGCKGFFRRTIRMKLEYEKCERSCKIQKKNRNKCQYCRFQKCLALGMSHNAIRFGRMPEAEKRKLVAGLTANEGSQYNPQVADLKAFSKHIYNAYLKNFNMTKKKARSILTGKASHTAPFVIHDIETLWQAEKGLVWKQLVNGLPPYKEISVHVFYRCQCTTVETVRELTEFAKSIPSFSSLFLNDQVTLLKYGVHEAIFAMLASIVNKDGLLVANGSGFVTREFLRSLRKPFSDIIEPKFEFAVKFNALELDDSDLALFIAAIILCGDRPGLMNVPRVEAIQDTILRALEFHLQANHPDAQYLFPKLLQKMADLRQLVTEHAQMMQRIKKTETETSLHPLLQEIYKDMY
T1 sequence (P19793 1-462 partner): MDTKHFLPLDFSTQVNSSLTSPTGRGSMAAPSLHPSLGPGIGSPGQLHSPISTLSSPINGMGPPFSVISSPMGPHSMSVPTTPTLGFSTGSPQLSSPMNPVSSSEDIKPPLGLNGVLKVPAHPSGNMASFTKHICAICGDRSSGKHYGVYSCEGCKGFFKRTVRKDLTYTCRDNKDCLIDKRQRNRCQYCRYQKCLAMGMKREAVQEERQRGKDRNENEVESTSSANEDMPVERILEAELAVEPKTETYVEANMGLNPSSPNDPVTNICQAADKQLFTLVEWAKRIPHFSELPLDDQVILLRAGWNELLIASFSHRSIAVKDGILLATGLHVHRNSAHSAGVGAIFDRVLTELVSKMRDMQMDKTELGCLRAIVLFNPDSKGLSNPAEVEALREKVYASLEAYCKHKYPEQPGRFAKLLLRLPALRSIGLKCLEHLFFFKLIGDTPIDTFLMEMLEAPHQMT
Put plainly: PPARδ-RXRα heterodimer ligand activity, luciferase reporter in COS-1 transformant (Test Example 4). In kind it is cell-based. The conditions noted are these: COS-1 transformant (hPPARδ, hRXRα, reporter), 36-48 hours, concentration for 50% of the maximum fold induction. Here is the method:
The transformant obtained in Reference Example 9a was suspended in DMEM medium (produced by Life Technologies, Inc., USA) containing 0.1% fatty acid-free bovine serum albumin (BSA) (produced by Wako Pure Chemical Industries, Ltd.), and inoculate to each well of a 96-well white plate (produced by Corning Costar Corporation, USA) by 80 μl at 1×10^4 cells/well. Then the test compound (20 μl) was added and cultured at 37° C. under 5% CO2 for 36-48 hours. After removing the medium from the 96-well white plate, 40 μl of PIKKAGENE LT 7.5 (produced by Wako Pure Chemical Industries, Ltd.) diluted twice with HBSS (HANKS' BALANCED SALT SOLUTION)(produced by BIO WHITTAKER Inc., USA), was added. After stirring, the luciferase activity was determined using 1420 ARVO Multilabel Counter (produced by PerkinElmer Inc., USA).
A fold induction was calculated based on the luciferase activity of each test compound by taking the luciferase activity in the non-treatment group as 1. The values of the test compound concentration and the fold induction were analyzed using PRISM (produced by GraphPad Software Inc. USA) to calculate the EC50 values, the effective concentration of a test compound for 50% of the maximum fold induction.
COS-1 cells were inoculated to a 150 cm^2 cell culture flask (produced by Corning Costar Corporation, USA) at the density of 5×10^6 cells/50 ml, and cultured at 37° C. under 5% CO2 conditions for 24 hours. Subsequently, a DNA was introduced into the cell under the condition shown below using Lipofectamine (produced by Invitrogen, USA).
First, Lipofectamine (125 μl), PLUS Reagent (100 μl, produced by Invitrogen, USA), plasmid pMCMVneo-hPPARδ (2.5 μg) obtained in Reference Example 3a, plasmid pMCMVneo-hRXRα (2.5 μg) obtained in Reference Example 4a and reporter plasmid pGL3-4ERPP-TK neo (5 μg) obtained in Reference Example 5a, and pRL-tk (5 μg, produced by Promega, USA) were mixed with opti-MEM (5 ml, produced by Invitrogen, USA) to give a transfection mixture.
Then, the above-mentioned transfection mixture and opti-MEM (20 ml) were added to COS-1 cells washed with opti-MEM, and the cells were cultured at 37° C. under 5% CO2 conditions for 3 hours. DMEM medium (25 ml, produced by Life Technologies, Inc., USA) containing 0.1% fatty acid-free bovine serum albumin (BSA) (produced by Wako Pure Chemical Industries, Ltd.) was added to the obtained COS-1 cells, and the cells were cultured at 37° C. under 5% CO2 conditions for 18-24 hours to give a transformant.
In general terms: A reporter such as luciferase makes a cellular process visible.

A further data set concerns KKAY mice. Put plainly: Hypoglycemic and hypolipidemic actions in mice (Test Example 1). In kind it is in vivo. The following applies: Mus musculus, po, 96 h, 0.005% in powdery diet, four days, non-treated group taken as 100%. As for the experimental part: Test compounds were mixed in a powdery diet (CE-2, Japan Clea) at the concentration of 0.005%, and freely given to KKAY mice (9 to 12 weeks old, 5 mice in a group), a model of obese and non-insulin dependent diabetes (type 2 diabetes), for four days. During this period, water was given freely. Blood was sampled from orbital venous plexus, and glucose and triglyceride levels in plasma separated from blood were determined enzymatically using L type Wako Glu2 (Wako Pure Chemical Industries, Ltd.) or L type Wako TG·H (Wako Pure Chemical Industries, Ltd.), respectively.
In the table, “hypoglycemic action (%)” means the rate of decrease (%) in the blood glucose level of the treated group when the blood glucose level of the non-treated group is taken as 100%. In addition, the “hypolipidemic action (%)” means the rate of decrease (%) in the blood triglyceride level of the treated group when the blood triglyceride level of the non-treated group is taken as 100%.

Setting [1] is: rate of decrease in blood glucose level, read-out: Hypoglycemic action (%).
[2] abbreviates: rate of decrease in blood triglyceride level, read-out: Hypolipidemic action (%).

By EC50 is commonly meant the concentration that produces a half-maximal response. Low readings indicate greater potency, high ones weaker potency. As a reminder, the melting point is the temperature, or range, at which the solid turns liquid. In turn, `CCOc1nn(-c2ccc(C(F)(F)F)cn2)cc1CCCOc1cc(CC(=O)O)cc(OC)c1` [Example 168, [5-(3-{3-ethoxy-1-[5-(trifluoromethyl)-2-pyridyl]-1H-pyrazol-4-yl}propoxy)-3-methoxyphenyl]acetic acid] displayed a melting point of 125 to 126 °C. The midpoint of the response on PPARδ-RXRα heterodimer, the EC50, lay at 1.6 nM.
Taken in the same sequence, the figures for `CCOc1nn(-c2ccc(C(F)(F)F)cn2)cc1CCCOc1c(CC(=O)O)cccc1OC` [Example 146, [2-(3-{3-ethoxy-1-[5-(trifluoromethyl)-2-pyridyl]-1H-pyrazol-4-yl}propoxy)-3-methoxyphenyl]acetic acid] were 122 to 123 °C and 5.8 nM.
In turn, `CCCc1nn(-c2ccc(C(F)(F)F)cn2)cc1CCCOc1ccc(CCC(=O)O)c(OC)c1` [Example 86, 3-[2-methoxy-4-(3-{3-propyl-1-[5-(trifluoromethyl)-2-pyridyl]-1H-pyrazol-4-yl}propoxy)phenyl]propionic acid] returned a melting point of 114 to 115 °C. Besides, the EC50 at PPARδ-RXRα heterodimer came to 1.5 nM.
`CCOc1cc(OCCCc2cn(-c3ccc(C(F)(F)F)cn3)nc2OC)ccc1CCC(=O)O` [Example 152, 3-[2-ethoxy-4-(3-{3-methoxy-1-[5-(trifluoromethyl)-2-pyridyl]-1H-pyrazol-4-yl}propoxy)phenyl]propanoic acid]: the melting point is 145 to 146 °C. At PPARδ-RXRα heterodimer, this molecule returned an EC50 of 9.9 nM.
Taken in the same sequence, the figures for `CCCc1nn(-c2ccc(C(F)(F)F)cn2)cc1CCCOc1cc(CC(=O)O)ccc1OCC` [Example 204, [4-ethoxy-3-(3-{3-propyl-1-[5-(trifluoromethyl)-2-pyridyl]-1H-pyrazol-4-yl}propoxy)phenyl]acetic acid] were 124 to 125 °C and 4.6 nM.
Consider `COc1cccc(CC(=O)O)c1OCCCc1cn(-c2ncc(C(F)(F)F)cc2Cl)nc1C(C)C` [Example 217, [2-(3-{1-[3-chloro-5-(trifluoromethyl)-2-pyridyl]-3-isopropyl-1H-pyrazol-4-yl}propoxy)-3-methoxyphenyl]acetic acid], for which the melting point lay in the range of 96 to 97 °C. In addition, the inhibition in vivo at 0.005 % in diet in the data set with KKAY mice (setting [1]) is 34%. Also, in the data set with KKAY mice (setting [2]), the inhibition in vivo at 0.005 % in diet was 18%.
`CCCc1nn(-c2ccc(C(F)(F)F)cn2)cc1CCCOc1cccc(CC(=O)O)c1F` [Example 258, [2-fluoro-3-(3-{3-propyl-1-[5-(trifluoromethyl)-2-pyridyl]-1H-pyrazol-4-yl}propoxy)phenyl]acetic acid] came in with a melting point of 109 to 110 °C. This molecule also had an EC50 on PPARδ-RXRα heterodimer of 5.5 nM.
The molecule `CCCC(C)c1nn(-c2ccc(C(F)(F)F)cn2)cc1CCCOc1c(C)cccc1CC(=O)O` (stereo not shown) [Example 222, [3-methyl-2-(3-{3-(1-methylbutyl)-1-[5-(trifluoromethyl)-2-pyridyl]-1H-pyrazol-4-yl}propoxy)phenyl]acetic acid] yielded a melting point of 147 to 148 °C. The inhibition in vivo at 0.005 % in diet with KKAY mice (setting [1]) amounted to 36%. In the data set with KKAY mice (setting [2]), the inhibition in vivo at 0.005 % in diet was 54%.
At PPARδ-RXRα heterodimer, “calcium 2-[3-(4-{3-ethoxy-1-[5-(trifluoromethyl)-2-pyridinyl]-1H-pyrazol-4-yl}butoxy)phenoxy]-2-methylpropanoate [Example 102]” displayed an EC50 of 9.1 nM.
Regarding `CCc1cccc(CC(=O)O)c1OCCCc1cn(-c2ccc(Br)cn2)nc1C(C)C` [Example 247, (2-{3-[1-(5-bromo-2-pyridinyl)-3-isopropyl-1H-pyrazol-4-yl]propoxy}-3-ethylphenyl)acetic acid], the melting point is 152 °C. Also, the inhibition in vivo at 0.005 % in diet in the data set on KKAY mice (setting [1]) worked out at 25%. Besides, the inhibition in vivo at 0.005 % in diet in the data set on KKAY mice (setting [2]) worked out at 34%.
The corresponding values for `CC(C)c1nn(-c2ccc(C(F)(F)F)cn2)cc1CCCOc1ccccc1CC(=O)O` [Example 179, [2-(3-{3-isopropyl-1-[5-(trifluoromethyl)-2-pyridyl]-1H-pyrazol-4-yl}propoxy)phenyl]acetic acid] are 132 to 133 °C, 34% and 37%.
For the molecule “calcium 2-[3-(3-{3-ethoxy-1-[4-(trifluoromethyl)phenyl]-1H-pyrazol-4-yl}propoxy)phenoxy]-2-methylpropanoate [Example 105]”, on PPARδ-RXRα heterodimer, the EC50 is 7.2 nM. This counts as single-digit nanomolar.
Same read-out and setting: the figure for “calcium 3-[3-ethoxy-1-(4-{3-ethoxy-1-[5-(trifluoromethyl)-2-pyridinyl]-1H-pyrazol-4-yl}butyl)-1H-pyrazol-4-yl]propanoate [Example 110]” is 4.6 nM.
Take `CCc1cccc(CC(=O)O)c1OCCCc1cn(-c2ccc(C(F)(F)F)cn2)nc1C(CC)CC` [Example 241, [3-ethyl-2-(3-{3-(1-ethylpropyl)-1-[5-(trifluoromethyl)-2-pyridinyl]-1H-pyrazol-4-yl}propoxy)phenyl]acetic acid]: the melting point fell in the range of 130 to 131 °C. Also, in the data set on KKAY mice (setting [1]), the inhibition in vivo at 0.005 % in diet was 38%. The inhibition in vivo at 0.005 % in diet in the data set with KKAY mice (setting [2]) turned out to be 27%.
Turning to `COc1cccc(CC(=O)O)c1OCCCCc1cn(-c2ccc(C(F)(F)F)cn2)nc1C(C)C` [Example 180, [2-(4-{3-isopropyl-1-[5-(trifluoromethyl)-2-pyridyl]-1H-pyrazol-4-yl}butoxy)-3-methoxyphenyl]acetic acid], the melting point was 144 to 145 °C. Further, the inhibition in vivo at 0.005 % in diet with KKAY mice (setting [1]) was found to be 32%. The inhibition in vivo at 0.005 % in diet with KKAY mice (setting [2]) was found to be 36%.
The molecule `CC(C)c1nn(-c2ccc(C(F)(F)F)cn2)cc1CCCCOc1cccc(CC(=O)O)c1` [Example 51, [3-(4-{3-isopropyl-1-[5-(trifluoromethyl)-2-pyridinyl]-1H-pyrazol-4-yl}butoxy)phenyl]acetic acid] displayed an EC50 on PPARδ-RXRα heterodimer of 3.9 nM.
`CC(C)c1nn(-c2ccc(C(F)(F)F)cn2)cc1CCCOc1c(F)cccc1CC(=O)O` [Example 207, [3-fluoro-2-(3-{3-isopropyl-1-[5-(trifluoromethyl)-2-pyridyl]-1H-pyrazol-4-yl}propoxy)phenyl]acetic acid] came in with a melting point of 140 to 141 °C. Moreover, the inhibition in vivo at 0.005 % in diet with KKAY mice (setting [1]) came out at 49%. Besides, in the data set with KKAY mice (setting [2]), the inhibition in vivo at 0.005 % in diet was 72%.
